Test results: patent US9303009B2, “Migrastatins and uses thereof” (Sloan-Kettering Institute for Cancer Research, priority 2011, dated 2016)

Legend:
[1] = tested on: A549, H1975, and H299 cancer cells; test: transwell migration, panel of NSCLC lines; type: cell-based, human; settings: for IC50: Homo sapiens, range over A549, H1975 and H299, read-out: IC50 values across cell lines; for toxicity and effects on cell proliferation: in the millimolar range
Experimental: (§1) Migration assay: Cancer cell chemotaxis was performed towards a serum gradient in a modified Boyden chamber consisting of a cell culture insert (6.4 mm diameter, 8-μm pore polyethylene tetraphtalate membrane, [Becton Dickenson]) seated in each well of a 24-well companion plate (Becton Dickinson). Briefly, cancer cells were grown as subconfluent monolayer cultures then starved for 36 hours in serum-free M5 medium. After detachment and dissociation with 5 mM EDTA, single-cell suspensions were prepared by filtration through a 35 μm mesh cell strainer (Becton Dickinson). Cells were counted and a total of 10^5 cells suspended in serum-free medium were seeded into the upper chamber of an insert, then positioned in a 24-well plate, containing medium with or without 10% serum. When used, drugs or DMSO (vehicle) were added to the medium at 0.2% in both chambers. Migration assays were carried out for 12 hours in a humidified incubator at 37° C. with 5% CO2. Cells were then fixed with 3.7% formaldehyde, permeabilized with ice cold methanol and stained with a 0.2% Crystal violet solution. Non-migratory cells on the upper side of the insert were removed with a cotton swab. For quantification, three randomly selected fields on the lower side of the insert were photographed at 4× and 20× magnification using computer-assisted microscopy, and analyzed with CellProfiler2.0 cell image analysis software). The migration in response to the test condition was calculated relative to the DMSO vehicle control.
(§2) This assay provided reproducibly robust data, allowing dose-response studies to be carried out to determine the half maximal inhibitory concentration (IC50). […] Because we noticed a mild toxicity and effects on cell proliferation in the millimolar range, experiments with CME and ME at 1 mM or more were not included for the IC50 calculation.
(§3) Lung Cancer cell lines chemotaxis was performed in cell culture inserts after serum starvation and an overnight preincubation with an incremental logarithmic scale of drug concentration (ME and CME from 10^−3 to 10^−10M). Cancer cell migration in response to a serum gradient was measured after a 12 hour-long incubation in presence of different concentrations of ME or CME in both upper and lower chamber (three wells at each dose). Cells were then fixed and stained with Crystal violet, and photographed. […] Data are expressed as the mean+/−SEM of three independent experiments. Each experiment was performed in triplicate.

AC3-TGL cells = test: human SCLC xenograft model, Example 17; type: in vivo; settings: for tumor growth kinetics at the primary site of injection: all doses
Experimental: Evaluation of the anti-metastatic activity of ME (19) and CME (25) in a human SCLC xenograft model. These cells, in primary and subsequent in vivo passages in NOD/SCID mice, tend to form liver metastases. The tumor cells were stably transduced with a triple-fusion protein reporter construct (AC3-TGL), and then transplanted by subcutaneous injection with matrigel into NOD/SCID IL2R gamma null (NSG) mice.
Starting 1 day prior to the inoculation of tumor cells, groups of mice were treated with ME at doses of 10 mg/kg, 40 mg/kg, or 200 mg/kg, or with CME at 12 mg/kg or 49 mg/kg (note: dosage levels were adjusted to account for differences in molecular weight: 1 mg ME=1.2 mg CME). Control mice were treated with DMSO vehicle. The compounds were administered by i.p. injection every three days, from Day −1 to Day 55 following cell injection (n≧5 mice per group). During this time, tumor burden and metastatic spread were monitored by serial non-invasive bioluminescent imaging (BLI) at Days 14, 23, 30, 40, and 50. At Day 55, the mice were sacrificed and the metastatic spread of tumor cells to the lungs, liver, heart, kidneys, and spleen was assessed by ex-vivo BLI on the removed organs.
For the results depicted in FIGS. 7a-b: AC3-TGL cells were transplanted by subcutaneous ventral injection into NSG mice. Xenografted mice were treated with indicated dosages of CME or ME every 3 days starting 1 day prior to the inoculation of tumor cells: ME 10 mg/kg (ME10, n=5), 40 mg/kg (ME40, n=5), 200 mg/kg (ME200, n=5), CME 12 mg/kg (CME12, n=5), 49 mg/kg (CME49, n=5) and DMSO vehicle (control, n=6). At day 55, the mice were sacrificed. Three mice in the ME200 group died before the end of treatment. Tumor metastasis at endpoint: At day 55, mice were analyzed for metastasis by ex vivo BLI quantifying luciferase activity in the excised lungs, (Lu), liver (Li), heard (H), kidneys (K), and the spleen (S). Measurements for each mouse are presented in FIG. 7a (circles), with the average per group (short line) and expressed as photon flux (flux in photon/sec) in log scale. P-values were obtained using two-tailed Mann-Whitney U-test. Each picture is presented with the same settings (4 min exposure, photon signal, color scale from 3.10^4 (min) to 5.10^6 (max)).
Xenograft Model for Example 17: A human primary SCLC xenograft model was developed in 10-14 weeks old male NSG mice. Primary tumor samples were obtained after patient informed consent under an MSKCC IRB approved protocol. AC3-TGL tumor cells growing as clumps were dissociated into a single-cell suspension by Trypsin/Collagenase IV (Invitrogen) sequential treatment. Xenografts were performed by subcutaneous ventral injection of 500 AC3-TGL cells in serum-free medium mixed with Matrigel (Becton Dickinson).
One day prior to the tumor cell injection, mice were pretreated with either: (1) Migrastatin Ether (ME) at a dose of 10 mg/kg, 40 mg/kg or 200 mg/kg per mouse; (2) Carboxymethyl-ME (CME) at a dose of 12 mg/kg or 49 mg/kg; or (3) DMSO vehicle control (n≧5 mice per group). Drug treatment was delivered by intraperitoneal injection every 3 days starting from day −1 after cell injection to day 55. During this time, the tumor burden and metastatic spread were monitored by bioluminescence imaging (BLI) at day 14, 23, 30, 40, and 50. At day 55 (endpoint), the mice were killed and the metastatic spread of tumor cells to the lungs, liver, heart, kidneys, and spleen was assessed by ex-vivo BLI on the surgically resected organs.

H299 = test: transwell migration (modified Boyden chamber, serum gradient); type: cell-based; settings: Homo sapiens, 12 hour migration, mean +/- SEM of three experiments, read-out: IC50, inhibition of transwell migration
Experimental: as §1, §2, §3

A549 = test: as above; type: cell-based; settings: Homo sapiens, 12 hour migration, mean +/- SEM of three experiments, read-out: IC50, inhibition of transwell migration
Experimental: as §1, §2, §3

SMILES: CO[C@H]1/C=C/CCCCCOC/C(C)=C\[C@@H](C)[C@@H]1OCC(=O)O [CME, Carboxymethyl migraether]
- IC50 [1]: 0.5 to 5 µM
- toxicity and effects on cell proliferation [1]: mild toxicity
- Inhibition factor (IF) of overall metastasis (AC3-TGL cells; 12 mg/kg i.p. every 3 days, day 55): 99.3%
- toxicity (AC3-TGL cells; 12 mg/kg or 49 mg/kg cohorts): no toxicity was observed
- Inhibition factor (IF) of overall metastasis (AC3-TGL cells; 49 mg/kg i.p. every 3 days, day 55): 99.8%
- tumor growth kinetics at the primary site of injection (AC3-TGL cells): did not significantly affect
- potency relative to ME in inhibiting in vivo metastasis (AC3-TGL cells; at the lowest dosage level): approximately 4 times
- IC50 (H299): 5.02 ± 1.13 µM
- IC50 (A549): 0.66 ± 0.2 µM

SMILES: CO[C@H]1/C=C/CCCCCOC/C(C)=C\[C@@H](C)[C@@H]1O [ME, migrastatin ether]
- IC50 [1]: 1.5 to 8.2 µM
- toxicity and effects on cell proliferation [1]: mild toxicity
- deaths prior to the study endpoint (AC3-TGL cells; 10 mg/kg group): 2 mice
- Inhibition factor (IF) of overall metastasis (AC3-TGL cells; 10 mg/kg i.p. every 3 days, day 55): 96.2%
- deaths prior to the study endpoint (AC3-TGL cells; 40 mg/kg group): 2 mice
- Inhibition factor (IF) of overall metastasis (AC3-TGL cells; 40 mg/kg i.p. every 3 days, day 55): 99.1%
- deaths prior to the study endpoint (AC3-TGL cells; 200 mg/kg group): 3 mice
- Inhibition factor (IF) of overall metastasis (AC3-TGL cells; 200 mg/kg i.p. every 3 days, day 55, 2 surviving mice): 99.8%
- tumor growth kinetics at the primary site of injection (AC3-TGL cells): did not significantly affect
- IC50 (H299): 8.2 ± 1.75 µM
- IC50 (A549): 1.93 ± 0.41 µM
